Measured values from US20220168314A1, “MEDICAMENT FOR PROPHYLAXIS OR TREATMENT OF PULMONARY FIBROSIS” (MITSUBISHI TANABE PHARMA CORPORATION, priority 2019, published 2022).

Tests used:
[1] = test system: bleomycin-induced pulmonary fibrosis mice; details: literature reports; cited from earlier work
[2] = test system: bleomycin intra airway administration induced mouse pulmonary fibrosis model; assay: Lung functions in bleomycin intra airway administration induced mouse pulmonary fibrosis model (Example 1); format: in vivo; details: Day 21; oral gavage Day 7-21; compound (I) 10 mg/kg once a day, eplerenone 50 mg/kg twice a day; vs bleomycin control group
Description: (§1) C57/BL6NTAC mice (male; body weight at start of a test: 25 g) (manufactured by The Jackson Laboratory) were grouped into the following 4 groups (12 mice in each group):
(§2) Group 1: normal group Group 2: no drug administration group (control group) Group 3: drug (the compound (I)) administration group Group 4: drug (eplerenone; positive control) administration group
(§3) On a day (Day 0) when the test was started, bleomycin (3.25 U/kg) was administered dropwise through airways to the mice of Groups 2-4 as test groups. Instead of bleomycin, saline was administered dropwise through airways to the mice of Group 1 as a normal group. On a seventh day (Day 7) after the start of the test, with a dosing schedule of twice a day in the morning and afternoon, oral gavage administration (twice in the morning and afternoon) of a vehicle (0.1% HCO60+0.5% CMC) was started for the mice of Groups 1 and 2; a 2 mg/ml solution of the compound (I) was prepared and oral gavage administration (in the morning) thereof at a dose of 10 mg/kg and oral gavage administration (in the afternoon) of a vehicle (0.1% HCO60+0.5% CMC) were started for the mice of Group 3; and oral gavage administration (twice in the morning and afternoon) of eplerenone at a dose of 50 mg/kg was started for the mice of Group 4. Thereafter, until a 21st day (Day 21) after the start of the test, the administrations were continued at the same dosing schedules. After the administrations were completed (Day 21), the following evaluation items were examined.
The following evaluation items were measured using a commercially available respiratory and lung function evaluation system (measurement site: around an airway). Evaluation of 4 items including: 1) inspiratory capacity (mL); 2) compliance (mL/cmH2O); 3) elastance) (cmH2O/mL); and 4) resistance (cmH2O.s/mL)
The “inspiratory capacity” corresponds to an amount of air discharged from the lungs at a stage when slowly breathing out to an end of a breath has completed, and is an indicator of a volume of the lungs. As pulmonary fibrosis progresses and the lung hardens, the volume of the lungs shrinks, and the inspiratory capacity decreases.
The “compliance” indicates a change in a lung capacity due to a certain change in pressure. […] As pulmonary fibrosis progresses and the lungs harden, the volume of the lungs shrinks, and the compliance decreases.
The “elastance” is a value represented by a reciprocal of the compliance, and is an indicator representing the difficulty for the lungs to stretch. As pulmonary fibrosis progresses and the lungs harden, the elastance increases.
The “resistance” means an airway resistance. The resistance is a resistance received by an air current in respiration, and a larger resistance means that it is harder for air to flow through the airway.

[3] = test system: bleomycin intra airway administration induced mouse pulmonary fibrosis model; assay: Lung pathological tissue (picrosirius red staining, hydroxyproline content), Example 1; format: in vivo; details: Day 21, compound (I) 10 mg/kg once a day, eplerenone 50 mg/kg twice a day; for positive rate (PSR Positive %) in picrosirius red staining: left lung lobes; for hydroxyproline content (μg): lower lung lobes and middle lung lobe
Description: as §1, §2, §3
Pulmonary fibrosis is caused by that activated fibroblasts are accumulated at a fibrosis site and a large amount of type I collagen is produced. Therefore, based on a degree of collagen accumulation in a lung tissue, a degree of pulmonary fibrosis can be evaluated. Type I collagen and type III collagen in a tissue are stained by picrosirius red staining. Therefore, a situation of collagen accumulation can be image-diagnosed, and quantitative evaluation can also be performed by calculating a staining positive rate.
Specifically, the above staining was performed on a tissue section of the lungs, and an area of a stained site (fibrosis site) was measured and evaluated.
Hydroxyproline is a major component of collagen and is substantially absent in other proteins. Therefore, by measuring a content of hydroxyproline in a tissue, an amount of collagen can be evaluated.

[4] = test system: gene expression associated with pulmonary fibrosis; assay: Gene expression fluctuation associated with pulmonary fibrosis (mRNA, real time PCR, upper lung lobes), Example 1; format: in vivo, mouse; details: Day 21, compound (I) 10 mg/kg once a day, eplerenone 50 mg/kg twice a day
Description: as §1, §2, §3
(iii) Evaluation of Gene Expression Fluctuation Associated with Pulmonary Fibrosis (Quantification of mRNA; Fold Increase) (Upper Lung Lobes)
According to a conventional method, mRNA was extracted from a homogenized upper lung lobe, and an extremely small amount of the mRNA was quantified using a real time PCR system.

[5] = Concentration of the compound (I) in blood plasma, Example 1; format: in vivo, mouse; details: 10 mg/kg oral
Description: as §3, with “After the administrations were completed (Day 21), the following evaluation items were examined.” left out
At 2 hours (before the above evaluations) and at 18 hours from the final administration of the compound (I) (Day 21), a small amount of blood was collected from a tail vein under anesthesia, and plasma was separated with an ice-cooled centrifuge, and a concentration (nM) of the compound (I) in the plasma was measured using a conventional method.

[6] = test system: bleomycin subcutaneous continuous infusion induced mouse pulmonary fibrosis model; assay: Lung functions in bleomycin subcutaneous continuous infusion induced mouse pulmonary fibrosis model (Example 2); format: in vivo
Description: (§4) Body weights of the mice of the test group were measured daily, and, on the seventh day (Day 7) after the start of the test, the mice of the test group were randomly grouped as follows using an amount of decrease in body weight as an indicator.
(§5) Group 2: no drug administration group (control group) (12 mice) Group 3: drug (the compound (I), 3 mg/kg) administration group (12 mice) Group 4: drug (the compound (I), 10 mg/kg) administration group (12 mice) Group 5: drug (the compound (I), 30 mg/kg) administration group (12 mice)
(§6) From an eighth day (Day 8) after the start of the test, oral gavage administration of a vehicle (0.1 ml per 10 g body weight) to the mice of Group 1 as the normal group and the mice of Group 2 as the no drug administration group was started, and, on the other hand, oral gavage administration of the compound (I) of a predetermined dosage to the mice of the drug administration groups of Groups 3-5 was started (for all groups, once a day in the morning). Thereafter, until a 21st day (Day 21) after the start of the test, the administrations were continued. After the administrations were completed, the following items were evaluated.
Evaluation of 4 items including: 1) inspiratory capacity (mL); 2) compliance (mL/cmH2O); 3) elastance) (cmH2O/mL); and 4) resistance (cmH2O.s/mL)

[7] = test system: bleomycin subcutaneous continuous infusion induced mouse pulmonary fibrosis model; assay: Lung pathological tissue (picrosirius red staining, hydroxyproline content), Example 2; format: in vivo; details: for hydroxyproline content (μg): right lung lobes
Description: as §4, §5, §6
i) Evaluation by Picrosirius Red Staining (Left Lung Lobes)
ii) Evaluation of Hydroxyproline Content (μg) (Right Lung Lobes)

[8] = Concentration of the compound (I) in blood plasma, Example 2; format: in vivo, mouse
Description: as §6
Evaluation of a concentration (nM) of the compound (I) in a blood plasma at 2 hours (before the above evaluations) and at 24 hours after the final administration (Day 21) (similar to Example 1, blood samples obtained by tail vain blood sampling were evaluated.)

[9] = target: CYP3A4 (Homo sapiens, UniProt P08684); details: background statement; cited from earlier work
Sequence of CYP3A4 (P08684 whole entry): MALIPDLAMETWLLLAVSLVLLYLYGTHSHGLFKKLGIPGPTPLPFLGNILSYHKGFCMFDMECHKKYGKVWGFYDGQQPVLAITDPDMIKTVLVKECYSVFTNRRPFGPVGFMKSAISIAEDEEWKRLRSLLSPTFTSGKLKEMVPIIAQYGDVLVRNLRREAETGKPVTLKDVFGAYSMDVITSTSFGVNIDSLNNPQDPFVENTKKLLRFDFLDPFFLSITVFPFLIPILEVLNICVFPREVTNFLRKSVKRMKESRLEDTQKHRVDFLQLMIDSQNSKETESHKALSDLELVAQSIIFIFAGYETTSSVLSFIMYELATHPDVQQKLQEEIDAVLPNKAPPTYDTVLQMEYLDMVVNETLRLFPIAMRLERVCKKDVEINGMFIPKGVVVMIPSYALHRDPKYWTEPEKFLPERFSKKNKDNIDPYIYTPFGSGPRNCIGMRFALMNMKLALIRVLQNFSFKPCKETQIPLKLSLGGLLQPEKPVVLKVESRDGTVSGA

[10] = 30 mg/kg oral once a day, Day 8-21 (Group 5)
[11] = 3, 10 and 30 mg/kg oral once a day, Day 8-21 (Groups 3-5), dose-dependent

Row | SMILES | compliance (mL/cmH2O) [2] | elastance (cmH2O/mL) [2] | inspiratory capacity (mL) [2] | resistance (cmH2O.s/mL) [2] | positive rate (PSR Positive %) in picrosirius red staining [3] | hydroxyproline content (μg) [3] | CTGF gene expression [4] | Ccl2 gene expression [4] | PAI-1 gene expression [4] | TGFβ gene expression [4] | fibronectin gene expression [4] | type I collagen gene expression [4] | type III collagen gene expression [4] | type IV collagen gene expression [4] | vimentin gene expression [4] | αSMA gene expression [4] | other results
1 | CC(=O)S[C@@H]1CC2=CC(=O)CC[C@]2(C)[C@H]2CC[C@@]3(C)[C@@H](CC[C@@]34CCC(=O)O4)[C@H]12 [spironolactone] | – | – | – | – | – | – | – | – | – | – | – | – | – | – | – | – | accumulation of hydroxyproline (indicator of tissue fibrosis) [1]: improves
2 | CC1(C)Oc2cc(NS(C)(=O)=O)ccc2N(c2ccc(F)cc2)C1=O [compound (I)] | significantly improving | significantly improving | significantly improved to an extent exceeding the effect of eplerenone | very significantly improved to a level of the normal group exceeding the effect of eplerenone | significantly improving | significantly improved to an extent exceeding the effect of eplerenone | significantly reduced | significantly reduced | significantly reduced | tendency to decrease | significantly reduced | significantly reduced | significantly reduced | significantly reduced | significantly reduced | significantly reduced | concentration of the compound (I) in a blood plasma ([5]; 2 hours after the final administration (Day 21)): sufficient concentration; concentration of the compound (I) in a blood plasma ([5]; 18 hours after the final administration (Day 21)): sufficient concentration; inspiratory capacity (mL) ([6]; 10 mg/kg oral once a day, Day 8-21 (Group 4)): significantly improved; inspiratory capacity (mL) [6, 10]: significantly improved; resistance (cmH2O.s/mL) [6, 10]: significantly improved; compliance (mL/cmH2O) [6, 11]: significantly improved; elastance (cmH2O/mL) [6, 11]: significantly improved; positive rate in picrosirius red staining ([7]; left lung lobes, all the doses 3, 10, 30 mg/kg oral once a day (Groups 3-5)): significantly decreased; hydroxyproline content (μg) ([7]; 3 mg/kg oral once a day, Day 8-21 (Group 3)): significantly decreased; hydroxyproline content (μg) [7, 10]: significantly decreased; concentration of the compound (I) in a blood plasma ([8]; 2 hours after the final administration (Day 21), 3, 10, 30 mg/kg oral): dose-dependent concentration; concentration of the compound (I) in a blood plasma ([8]; 24 hours after the final administration (Day 21), 30 mg/kg oral): sufficient concentration
3 | COC(=O)[C@@H]1CC2=CC(=O)CC[C@]2(C)[C@@]23O[C@@H]2C[C@@]2(C)[C@@H](CC[C@@]24CCC(=O)O4)[C@H]13 [eplerenone, reference compound] | significantly improved | significantly improved | significantly improved | significantly improved | significantly improved | significantly improved | significantly reduced | significantly reduced | significantly reduced | tendency to increase | significantly reduced | could not reduce | could not reduce | could not reduce | significantly reduced | could not reduce | metabolizing enzyme [9]: mainly metabolized by CYP3A4
